Measurements as given in US20220274979A1 (Bayer Pharma Aktiengesellschaft, priority 2018, published 2022).

Assays:
[1] = target: T1, hSOS1 (hSOS1-mediated nucleotide exchange of hK-RasG12C) (Homo sapiens, UniProt Q07889); assay: Biochemical Assay 2: hK-RasG12C activation assay by hSOS1 at high GTP concentration (HTRF nucleotide exchange); conditions: high GTP (50 μM GTP)
T1 construct: hSOS1 (amino acid 564-1049); made in house; host or cells: E. coli BL21 (DE3)
T1 sequence (Q07889 with tags, fused parts or gaps): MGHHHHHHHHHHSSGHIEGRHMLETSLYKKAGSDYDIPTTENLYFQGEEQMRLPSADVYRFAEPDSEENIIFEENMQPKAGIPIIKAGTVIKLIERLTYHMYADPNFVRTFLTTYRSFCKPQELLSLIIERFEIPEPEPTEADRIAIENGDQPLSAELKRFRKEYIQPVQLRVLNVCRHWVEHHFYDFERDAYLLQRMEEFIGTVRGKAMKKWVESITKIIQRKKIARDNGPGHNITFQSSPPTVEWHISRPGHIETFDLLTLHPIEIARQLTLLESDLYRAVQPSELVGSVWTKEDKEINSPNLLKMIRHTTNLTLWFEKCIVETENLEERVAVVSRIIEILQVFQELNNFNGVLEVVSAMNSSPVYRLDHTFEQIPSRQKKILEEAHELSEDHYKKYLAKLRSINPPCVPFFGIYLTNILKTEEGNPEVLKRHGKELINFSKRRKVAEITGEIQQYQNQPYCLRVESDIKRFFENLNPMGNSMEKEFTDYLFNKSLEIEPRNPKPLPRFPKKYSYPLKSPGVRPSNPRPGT

[2] = target: T2, hSOS1 (hSOS1-mediated loading of hK-RasG12C-GDP) (Homo sapiens, UniProt Q07889); assay: Biochemical Assay 3: hK-RasG12C activation assay by hSOS1 (loading with fluorescent GTP analog, HTRF); conditions: no GTP
T2 construct: hSOS1 (amino acid 564-1049); made in house; host or cells: E. coli BL21 (DE3)
T2 sequence (Q07889 with tags, fused parts or gaps): T1 sequence (Q07889 with tags, fused parts or gaps)

SMILES	IC50 [1]	IC50 [2]
Cc1nc(NC(C)c2ccc(-c3ccccc3CN(C)C)s2)c2cc(N3CC(NC(=O)Cc4ccccc4)C3)ncc2n1 (centres unmarked) [Example 89, N-[1-(4-{[1-(5-{2-[(dimethylamino)methyl]phenyl}thiophen-2-yl)ethyl]amino}-2-methylpyrido[3,4-d]pyrimidin-6-yl)azetidin-3-yl]-2-phenylacetamide]	111 nM	132 nM
Cc1nc(NC(C)c2ccc(-c3ccccc3CN(C)C)s2)c2cc(N3CC(NC(=O)C4CCCCC4)C3)ncc2n1 (centres unmarked) [Example 90, N-[1-(4-{[1-(5-{2-[(dimethylamino)methyl]phenyl}thiophen-2-yl)ethyl]amino}-2-methylpyrido[3,4-d]pyrimidin-6-yl)azetidin-3-yl]cyclohexanecarboxamide]	154 nM	190 nM
Cc1nc(NC(C)c2ccc(-c3ccccc3CN(C)C)s2)c2cc(N3CC(NC(=O)CC4CC4)C3)ncc2n1 (centres unmarked) [Example 91, 2-cyclopropyl-N-[1-(4-{[1-(5-{2-[(dimethylamino)methyl]phenyl}thiophen-2-yl)ethyl]amino}-2-methylpyrido[3,4-d]pyrimidin-6-yl)azetidin-3-yl]acetamide]	137 nM	179 nM
Cc1nc(NC(C)c2ccc(-c3ccccc3CN(C)C)s2)c2cc(N3CC(N)C3)ncc2n1 (centres unmarked) [Example 93, 6-(3-aminoazetidin-1-yl)-N-[1-(5-{2-[(dimethylamino)methyl]phenyl}thiophen-2-yl)ethyl]-2-methylpyrido[3,4-d]pyrimidin-4-amine]	69.2 nM	82.9 nM
Cc1nc(NC(C)c2ccc(-c3ccccc3CN(C)C)s2)c2cc(N3CC(NS(=O)(=O)c4ccccc4)C3)ncc2n1 (centres unmarked) [Example 94, N-[1-(4-{[1-(5-{2-[(dimethylamino)methyl]phenyl}thiophen-2-yl)ethyl]amino}-2-methylpyrido[3,4-d]pyrimidin-6-yl)azetidin-3-yl]benzenesulfonamide]	163 nM	170 nM
Cc1nc(NC(C)c2ccc(-c3ccccc3CN(C)C)s2)c2cc(N3CC(NS(=O)(=O)Cc4ccccc4)C3)ncc2n1 (centres unmarked) [Example 95, N-[1-(4-{[1-(5-{2-[(dimethylamino)methyl]phenyl}thiophen-2-yl)ethyl]amino}-2-methylpyrido[3,4-d]pyrimidin-6-yl)azetidin-3-yl]-1-phenylmethanesulfonamide]	240 nM	204 nM
Cc1nc(NC(C)c2ccc(-c3ccccc3CN(C)C)s2)c2cc(N3CC(NC(=O)Nc4ccccc4)C3)ncc2n1 (centres unmarked) [Example 96, 1-[1-(4-{[1-(5-{2-[(dimethylamino)methyl]phenyl}thiophen-2-yl)ethyl]amino}-2-methylpyrido[3,4-d]pyrimidin-6-yl)azetidin-3-yl]-3-phenylurea]	226 nM	206 nM
